Test system: RSV A2
Test: BALB/c mouse model of RSV A2 infection, oral treatment
Assay type: in vivo, BALB/c mice
Settings: 4 dpi, 3 × 10^6 PFU RSV A2
Description: To evaluate the antiviral efficacy of metalloproteinase inhibitors, we employed a BALB/c mouse model intranasally challenged with 3 × 10^6 PFU RSV A2. Mice received twice-daily oral administration of JNJ0966 (selective targeting of MMP-9 ([Scannevin et al., 2017]), 20 or 60 mg/kg [mpk]) or doxycycline hyclate (a broad-spectrum MMP inhibitor ([Patnaik et al., 2021]; [Samtani et al., 2009]), 60 or 180 mpk), beginning 2 hpi (Fig. 9A). By 4 dpi, JNJ0966 (60 mpk) and doxycycline hyclate (180 mpk) reduced lung viral titers by 2.6-fold and 2.0-fold, respectively, compared to vehicle-treated controls (Fig. 9B).
Figure 9. Therapeutic efficacy of MMP-9 inhibitors against RSV in mice. (A) Therapeutic regimen. […] Lung viral titers quantified by FFA at 4 dpi. mean ± SD, n = 5/group. […] Statistical significance was determined by one-way ANOVA with Dunnett’s post hoc test (B, D): **P < 0.01, ***P < 0.001. […]
314 50 μL of stop solution, absorbance at 540 nm was subtracted from the reading at
315 450 nm by PerkinElmer Ensight reader, and analyte concentrations were calculated […]
329 using a tissue grinder. Viral titers were quantified via FFA using 100 μL of […]
332 Two blinded pathologists independently scored histopathological changes on a 0 -4 […]
336 Body weights were monitored daily. […]
337 transcriptomic analyses. Viral loads were determined as focus -forming units per gram […]

Compound	reduction of lung viral titers compared to vehicle-treated controls (60 mpk oral twice daily) [fold]	reduction of lung viral titers compared to vehicle-treated controls (180 mpk oral twice daily) [fold]
COc1ccccc1Nc1nc(-c2sc(NC(C)=O)nc2C)cs1 [JNJ0966]	2.6	–
Doxycycline hyclate	–	2.0

Reference: PMC12888920, “MMP-9 regulates disulphide isomerase activity of TGM2 to enhance fusion glycoprotein-mediated syncytium formation of respiratory syncytial virus” (Protein & Cell, 2025)
